Data taken from patent publication US20230090742A1, “AMINOPYRIMIDINYLAMINOBENZONITRILE DERIVATIVES AS NEK2 INHIBITORS” (Sumitomo Pharma Oncology, Inc., priority 2020, published 2023).

How the values were obtained:
[1] = molecular target: T1, NEK2 (Homo sapiens, UniProt P51955); test: NanoBRET Target Engagement Intracellular Kinase Assay for NEK2 in transfected HEK293 cells; format: cell-based; settings: NEK2 target engagement, read-out: NanoBRET IC50
T1 construct: expressed in transfected cells; host or cells: HEK293
T1 sequence (P51955 1-445): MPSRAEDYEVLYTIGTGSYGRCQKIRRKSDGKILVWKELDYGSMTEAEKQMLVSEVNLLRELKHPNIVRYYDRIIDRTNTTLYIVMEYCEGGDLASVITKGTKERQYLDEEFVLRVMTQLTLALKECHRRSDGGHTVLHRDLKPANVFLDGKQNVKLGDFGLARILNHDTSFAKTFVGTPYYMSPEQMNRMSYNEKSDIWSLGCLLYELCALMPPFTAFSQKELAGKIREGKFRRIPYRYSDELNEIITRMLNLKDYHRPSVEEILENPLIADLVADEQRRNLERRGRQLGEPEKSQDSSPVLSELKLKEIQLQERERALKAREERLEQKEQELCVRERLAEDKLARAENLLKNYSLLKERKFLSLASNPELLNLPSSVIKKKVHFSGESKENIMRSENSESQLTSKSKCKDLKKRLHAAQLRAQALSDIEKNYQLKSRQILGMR
Experimental: In this example, the compounds described herein were tested for their inhibitory activity against NEK2 using a model of in vivo activity by the NanoBRET™ Target Engagement Intracellular Kinase Assay (Reaction Biology Corp.). The assay was performed according to the manufacturer's protocol, as detailed below.
HEK293 cells were cultivated (70-80% confluence) prior to the assay. The sample was trypsinized and HEK293 cells were collected.
To prepare lipid: DNA complexes, a 10 μg/ml solution of DNA in Opti-MEM without serum was prepared that consisted of the following ratios of carrier DNA and DNA encoding NanoLuc® fusion: 9.0 μg/ml of Transfection Carrier DNA, 1.0 μg/ml of NanoLuc fusion vector DNA and 1 ml of Opti-MEM without phenol red. The solution was mixed thoroughly. 30 μl of FuGENE HD Transfection Reagent was added into each milliliter of DNA mixture to form lipid: DNA complex. The sample was mixed by inversion 10 times and then incubated at ambient temperature for 20 minutes to allow complexes to form. In a sterile, conical tube, 1 part of lipid:DNA complex was mixed with 20 parts of HEK293 cells in suspension. The resulting sample was mixed gently by inversion 5 times. The cell and lipid: DNA complex was dispensed into a sterile tissue culture dish and incubated for 22-24 hours.
Each test compound is delivered from the compound source plate to the wells of 384-well white NBS plate by Echo 550.
Step 3. Preparation of Cells with NanoBRET™ Tracer K5 Reagent:
The medium was removed from the dish with the transfected HEK293 cells via aspiration, trypsinized and cells were allowed to dissociate from the dish. Trypsin was neutralized using medium containing serum and centrifuged at 200×g for 5 minutes to pellet the cells. The cell density was adjusted to 2×10^5 cells/ml in Opti-MEM without phenol red.
The Complete 20× NanoBRET™ Tracer K5 Reagent with Tracer Dilution Buffer was prepared according to the manufacturer's instructions. One part of Complete 20× NanoBRET™ Tracer Reagent was added to 20 parts of cells in the tube. The sample was mixed gently by inversion 10 times. Next, the cell suspension was dispensed into white, 384-well NBS plates with a final tracer K5 concentration of 2 μM. The plate was incubated at 37° C., 5% CO2 for 1 hour. A separate set of samples without tracer were prepared for background correction steps.
The plate was removed from the incubator and equilibrated to room temperature for 15 minutes. The 3× Complete Substrate plus Inhibitor Solution in Assay Medium (Opti-MEMR I Reduced Serum Medium, no phenol red) was prepared just before measuring BRET. The 3× Complete Substrate plus Inhibitor Solution was added to each well of the 384-well plate and incubated for 2-3 minutes at room temperature. The donor emission wavelength (460 nm) and acceptor emission wavelength (600 nm) were measured using the Envision 2104 plate reader.
To generate raw BRET ratio values, the acceptor emission value (600 nm) was divided by the donor emission value (460 nm) for each sample. To correct for background, the BRET ratio in the absence of tracer (average of no-tracer control samples) was subtracted from the BRET ratio of each sample.
BRET Ratio=[(Acceptor sample÷Donor sample)−(Acceptor no-tracer control÷Donor no-tracer control)]

[2] = molecular target: T2, NEK2 kinase (Accession No. NP-002488) (Homo sapiens, UniProt P51955); test: HotSpot Kinase Assay, NEK2; format: biochemical; settings: HotSpot Kinase Assay; read-out: NEK2 IC50
T2 construct: purchased ThermoFisher Scientific (Invitrogen)
T2 sequence (P51955 1-445): T1 sequence (P51955 1-445)
Experimental: In this example, the compounds described herein were tested for their inhibitory activity against NEK2 and/or Aurora A using the HotSpot™ Kinase Assay (Reaction Biology Corp.). The assay was performed according to the manufacturer's protocol, as detailed below. The NEK2 kinase (Accession No. NP-002488) and Aurora A kinase (Accession No. NP-940839) for use in these assays was sourced from ThermoFisher Scientific (Invitrogen).
The base Reaction Buffer used in this experiment contained the following: 20 mM Hepes (pH 7.5), 10 mM MgCl2, 1 mM EGTA, 0.02% Brij™-35, 0.02 mg/ml BSA, 0.1 mM Na3VO4, 2 mM DTT, and 1% DMSO. The required cofactors were added individually to each kinase reaction.
Testing compounds were dissolved in 100% DMSO to a specific concentration. The serial dilution was conducted by Integra Viaflo Assist in DMSO.
The substrate was prepared in freshly prepared Reaction Buffer. The required cofactors were delivered to the substrate solution described above. NEK2 kinase or Aurora A kinase was delivered to the substrate solution and gently mixed. Next, the compounds in 100% DMSO were transferred to the kinase reaction mixture by Acoustic technology (Echo550; nanoliter range) and incubated for 20 min at room temperature. ^33P-ATP (Specific activity 10 μCi/μl) was delivered into the reaction mixture to initiate the reaction. The reaction was incubated for 2 hours at room temperature. Radioactivity was then detected by the filter-binding method. Kinase activity data were expressed as the percent remaining kinase activity in test samples compared to vehicle (dimethyl sulfoxide) reactions. IC50 values and curve fits were obtained using Prism (GraphPad Software).

SMILES	IC50 [1] [nM]	IC50 [2] [nM]
COc1cc(Nc2ncc(Cl)c(Nc3cccc(OCc4ccccc4F)c3C#N)n2)ccc1N1CCNCC1 [Compound 9, 2-((5-chloro-2-((3-methoxy-4-(piperazin-1-yl)phenyl)amino)pyrimidin-4-yl)amino)-6-((2-fluorobenzyl)oxy)benzonitrile]	≤ 50	≤ 5
C[C@H](Oc1cccc(Nc2nc(Nc3ccc(N4CCN(C)CC4)cc3)ncc2Cl)c1C#N)c1ccccc1F [Compound 3, (S)-2-((5-chloro-2-((4-(4-methylpiperazin-1-yl)phenyl)amino)pyrimidin-4-yl)amino)-6-(1-(2-fluorophenyl)ethoxy)benzonitrile]	≤ 50	≤ 5
COc1cc(N2CCNCC2)ccc1Nc1ncc(Cl)c(Nc2cccc(OCc3ccccc3F)c2C#N)n1 [Compound 7, 2-((5-chloro-2-((2-methoxy-4-(piperazin-1-yl)phenyl)amino)pyrimidin-4-yl)amino)-6-((2-fluorobenzyl)oxy)benzonitrile]	> 150	≤ 5
N#Cc1c(Nc2nc(Nc3ccc(N4CCNCC4)nc3)ncc2Cl)cccc1OCc1ccccc1F [Compound 8, 2-((5-chloro-2-((6-(piperazin-1-yl)73yridine-3-yl)amino)pyrimidin-4-yl)amino)-6-((2-fluorobenzyl)oxy)benzonitrile]	> 150	5 to 15
N#Cc1c(Nc2nc(Nc3ccc(N4CCNCC4)cc3)ncc2Cl)cccc1OCc1cccc(F)c1 [Compound 14, 2-((5-chloro-2-((4-(piperazin-1-yl)phenyl)amino)pyrimidin-4-yl)amino)-6-((3-fluorobenzyl)oxy)benzonitrile]	> 150	> 15
N#Cc1c(Nc2nc(Nc3ccc(CN4CCOCC4)cc3)ncc2Cl)cccc1OCc1ccccc1F [Compound 1, 2-((5-chloro-2-((4-(morpholinomethyl)phenyl)amino)pyrimidin-4-yl)amino)-6-((2-fluorobenzyl)oxy)benzonitrile]	≤ 50	> 15
N#Cc1c(Nc2nc(Nc3ccc(N4CCNCC4)cc3)ncc2Cl)cccc1OCc1ccc(F)cc1 [Compound 13, 2-((5-chloro-2-((4-(piperazin-1-yl)phenyl)amino)pyrimidin-4-yl)amino)-6-((4-fluorobenzyl)oxy)benzonitrile]	> 150	> 15
COc1ccccc1COc1cccc(Nc2nc(Nc3ccc(N4CCNCC4)cc3)ncc2Cl)c1C#N [Compound 11, 2-((5-chloro-2-((4-(piperazin-1-yl)phenyl)amino)pyrimidin-4-yl)amino)-6-((2-methoxybenzyl)oxy)benzonitrile]	> 150	> 15
N#Cc1c(Nc2nc(Nc3ccc(C(=O)N4CCNCC4)cc3)ncc2Cl)cccc1OCc1ccccc1F [Compound 6, 2-((5-chloro-2-((4-(piperazine-1-carbonyl)phenyl)amino)pyrimidin-4-yl)amino)-6-((2-fluorobenzyl)oxy)benzonitrile]	> 150	> 15
C[C@@H](Oc1cccc(Nc2nc(Nc3ccc(N4CCN(C)CC4)cc3)ncc2Cl)c1C#N)c1ccccc1F [Compound 4, (R)-2-((5-chloro-2-((4-(4-methylpiperazin-1-yl)phenyl)amino)pyrimidin-4-yl)amino)-6-(1-(2-fluorophenyl)ethoxy)benzonitrile]	> 150	> 15

The remaining lines, values ahead:

IC50 [1] [nM]	IC50 [2] [nM]	SMILES
50 to 150	≤ 5	N#Cc1c(Nc2nc(Nc3ccc(C4CCNCC4)cc3)ncc2Cl)cccc1OCc1ccccc1F [Compound 27, 2-((5-chloro-2-((4-(piperidin-4-yl)phenyl)amino)pyrimidin-4-yl)amino)-6-((2-fluorobenzyl)oxy)benzonitrile]
> 150	5 to 15	N#Cc1c(Nc2nc(Nc3cnn(C4CCNCC4)c3)ncc2Cl)cccc1OCc1ccccc1F [Compound 31, 2-((5-chloro-2-((1-(piperidin-4-yl)-1H-pyrazol-4-yl)amino)pyrimidin-4-yl)amino)-6-((2-fluorobenzyl)oxy)benzonitrile]
> 150	5 to 15	N#Cc1c(Nc2nc(Nc3ccc(CN4CCNCC4)cc3)ncc2Cl)cccc1OCc1ccccc1F [Compound 15, 2-((5-chloro-2-((4-(piperazin-1-ylmethyl)phenyl)amino)pyrimidin-4-yl)amino)-6-((2-fluorobenzyl)oxy)benzonitrile]
50 to 150	≤ 5	CN1CCN(c2ccc(Nc3ncc(Cl)c(Nc4cccc(OCc5ccccc5F)c4C#N)n3)cc2)CC1 [Compound 18, 2-((5-chloro-2-((4-(4-methylpiperazin-1-yl)phenyl)amino)pyrimidin-4-yl)amino)-6-((2-fluorobenzyl)oxy)benzonitrile]
50 to 150	≤ 5	N#Cc1c(Nc2nc(Nc3ccc(N4CCN(CCO)CC4)cc3)ncc2Cl)cccc1OCc1ccccc1F [Compound 17, 2-((5-chloro-2-((4-(4-(2-hydroxyethyl)piperazin-1-yl)phenyl)amino)pyrimidin-4-yl)amino)-6-((2-fluorobenzyl)oxy)benzonitrile]
≤ 50	5 to 15	N#Cc1c(Nc2nc(Nc3ccc(N4CCNCC4)cc3)ncc2Cl)cccc1OCc1c(F)cccc1F [Compound 19, 2-((5-chloro-2-((4-(piperazin-1-yl)phenyl)amino)pyrimidin-4-yl)amino)-6-((2,6-difluorobenzyl)oxy)benzonitrile]
